What was measured:
hippocampal slices = experiment: Spontaneous interictal-like bursts in hippocampal slices after additions to the bathing medium; assay type: cell-based, rat; conditions: 4 slices
Protocol: (§1) Sprague-Dawley rats (male and female; 25 to 35 days old) were prepared as described in Aghajanian, A. K. and Rasmussen, K., Synapse 31:331, 1989; and Buckmaster, P. S., Strowbridge, B. W., Schwartzdroin, P. A., J. Neurophysiol. 70:1281, 1993. In most hippocampal slice experiments, simultaneous extracellular field electrode recordings were obtained from CA1 and CA3 areas. For stimulation-evoked afterdischarge (13 slices, 8 animals), the concentration of Mg^2+ in the bathing medium was reduced to 0.9 mM. A bipolar tungsten stimulating electrode was placed on the Schaffer collaterals to evoke synaptically driven field responses in CA1; stimuli consisted to 100 to 300-μs-duration pulses at an intensity of four times population-spike threshold. After discharges were evoked by a 2-s train of such stimuli delivered at 60 Hz. […] In all treatments, perfusion with furosemide-containing medium was begun after a consistent level of bursting had been established.

[1] = system: hippocampal tissue slice (CA1, Schaffer collateral stimulation); experiment: Stimulation-evoked afterdischarge in acute hippocampal slice: extracellular field recording and imaging of intrinsic optical signals; assay type: cell-based, rat
Protocol: as §1
For imaging of intrinsic optical signals, the tissue was illuminated with a beam of white light (tungsten filament light and lens system; Dedotec USA, Lodi, N.J.) directed through the microscope condenser. The light was controlled and regulated (power supply: Lambda Electronics, Melville, N.Y.) to minimize fluctuations and filtered (695 nm long-pass) so that the slice was transilluminated with long wavelengths (red). Image frames were acquired with a charge-coupled device camera (Dage-MTI) at 30 Hz and were digitized at 8 bits with a spatial resolution of 512 by 480 pixels by means of an Imaging Technology Series 151 imaging system; gains and offsets of the camera-control box and the analog-to-digital board were adjusted to optimize the sensitivity of the system. Imaging hardware was controlled by a 486-PC-compatible computer running software written by D. Hochman and developed with commercially available software tools (Microsoft's C/C++ Compiler and Imaging Technology's ITEX library). To increase signal-to-noise ratio, an averaged image was composed from 16 individual image-frames, integrated over 0.5 s and averaged together. An experimental series typically involved the continuous acquisition of a series of averaged images over a several minute time period; at least 10 of these averaged images were acquired as control images before stimulation. Pseudocolored images were calculated by subtracting the first control image from subsequently acquired images and assigned a color lookup table to the pixel values. For these images, usually a linear low-pass filter was used to remove high-frequency noise and a linear-histogram stretch was used to map the pixel values over the dynamic range of the system. All operations on these images were linear so that quantitative information was preserved.

[2] = system: brain tumor and normal tissue; experiment: Optical imaging of brain tumor through the intact cranium after intravenous dye injection
[3] = 20 minutes of perfusion with medium containing 2.5 mM furosemide
[4] = following treatment with furosemide (FIG. 3E)

Compound: Nc1ccncc1 [4-AP]
- spontaneous interictal-like bursts, average (hippocampal slices; 200 to 300 μM 4-AP in bathing medium, 2 animals): 33 bursts/min

Compound: CN1CCc2cc3c(cc2[C@H]1[C@@H]1OC(=O)c2c1ccc1c2OCO1)OCO3 [bicuculine]
- spontaneous interictal-like bursts, average (hippocampal slices; 50 to 100 bicuculine in bathing medium, 3 animals): 14 bursts/min

Compound: NS(=O)(=O)c1cc(C(=O)O)c(NCc2ccco2)cc1Cl [furosemide]
- field response to the test pulse [1, 3]: hyperexcitable field response (multiple population spikes)
- stimulation-evoked optical changes [1, 3]: blocked
- electrical afterdischarge activity ([1]; 20 minutes of perfusion with medium containing 2.5 mM furosemide, 2 s stimulation at 60 Hz): blocked
- response pattern after washout ([1]; following 45 minutes of perfusion with normal bathing medium): restoration of the initial response pattern
- epileptiform activity during electrical stimulation [1, 4]: blocks
- intrinsic optical signal during electrical stimulation [1, 4]: blocks

Compound: CC1(C)C(/C=C/C=C/C=C/C=C2\N(CCCCS(=O)(=O)O)c3ccc4ccccc4c3C2(C)C)=[N+](CCCCS(=O)(=O)[O-])c2ccc3ccccc3c21 [indocyanine green]
- dye distribution in normal and tumor tissue ([2]; five seconds after dye injection): profuse through both normal and tumor tissue
- dye in normal tissue ([2]; one minute after dye injection): cleared the dye
- dye in tumor region ([2]; one minute after dye injection): still retained
